pIC50: −log10 of the molar value.
Key:
KRAS G12C-BRAF complex = KRAS G12C-BRAF complex (Homo sapiens (Human), UniProt P01116+P62937, G12C); experiment: KRAS-BRAF with CYPA (500 nM) interaction assay (TR-FRET, Example 136); format: biochemical; conditions: KRAS G12C-BRAF disruption
Method: In this example, TR-FRET was also used to measure the compound or compound-CYPA dependent disruption of the KRAS G12C-BRAF complex. This protocol was also used to measure disruption of KRAS G12D or KRAS G12V binding to BRAF by a compound of the invention, respectively. In assay buffer containing 25 mM HEPES PH=7.4 (4-(2-hydroxyethyl)-1-piperazineethanesulfonic acid, Thermo, 15630080), 0.002% Tween20, 0.1% BSA, 100 mM NaCl, 5 mM MgCl2, 10 μM GMPPNP (Guanosine 5′-[β,γ-imido]triphosphate trisodium salt hydrate, Sigma, G0635), […] 384-well assay plate at final concentrations of 50 nM, 6.25 nM and 1 nM, respectively. Compound was present in plate wells as a 16-point 3-fold dilution series starting at a final concentration of 10 μM and incubated for 3 hours. A mixture of MAb Anti-6His-XL665 (Cisbio, 61HISXLB) and Mab anti-GST-TB cryptate (Cisbio, 61GSTTLB) was then added at a final concentration of 6.67 nM and 0.21 nM, respectively, and the plate was incubated for an additional 1.5 hours. TR-FRET signal was read on a PHERstar FSX microplate reader (Ex320 nm, Em 665/615 nm). Compounds that facilitate disruption of the KRAS-BRAF complex were identified as those eliciting a decrease in the TR-FRET ratio relative to DMSO control wells.

[1] = system: phosphorylation of ERK, KRAS G12C in NCI-H358 cells; experiment: pERK inhibition assay; format: cell-based; conditions: Homo sapiens, NCI-H358, 4 h
Method in brief: (§1)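 Cells in RPMI-1640 with 10% FBS were plated overnight (30,000/well H358, 20,000 AGS, 30,000 SW620) and treated 4 h with compounds at 0.5% DMSO. After formaldehyde fixation and methanol permeabilization, pERK was detected by in-cell ELISA with HRP secondary and TMB (OD450); IC50 from 4-parameter fit.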

[2] = system: phosphorylation of ERK, KRAS G12V in SW620; experiment: pERK inhibition assay; format: cell-based; conditions: Homo sapiens, SW-620, 4 h, SW620 cells
Method in brief: as §1

[3] = system: phosphorylation of ERK, KRAS G12D in AGS cells; experiment: pERK inhibition assay; format: cell-based; conditions: Homo sapiens, AGS, 4 h
Method in brief: as §1

[4] = system: NCI-H358 cells (KRAS G12C); experiment: Cell viability assay (Cell Counting Kit-8, 3-day); format: cell-based, human; conditions: Homo sapiens, NCI-H358, 72 h, NCI-H358, 72 hrs incubation
Method in brief: (§2)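 IC50 derived by 4-parameter sigmoidal fit of CCK-8 signal (OD450−OD650, 2 h development) after 72 h compound exposure in 0.5% DMSO. Seeding density was 5,000 cells/well for NCI-H358 and 2,000 cells/well for AGS and SW620, plated overnight before dosing.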

SW620 cells (KRAS G12V) = experiment: Cell viability assay (Cell Counting Kit-8, 3-day); format: cell-based, human; conditions: Homo sapiens, SW-620; SW620, 72 hrs incubation
Method in brief: as §2

AGS cells (KRAS G12D) = experiment: Cell viability assay (Cell Counting Kit-8, 3-day); format: cell-based, human; conditions: Homo sapiens, 72 h, 72 hrs incubation
Method in brief: as §2

Sequence of KRAS G12C-BRAF complex (P01116-2 other isoform, or with tags, fused parts or gaps G12C): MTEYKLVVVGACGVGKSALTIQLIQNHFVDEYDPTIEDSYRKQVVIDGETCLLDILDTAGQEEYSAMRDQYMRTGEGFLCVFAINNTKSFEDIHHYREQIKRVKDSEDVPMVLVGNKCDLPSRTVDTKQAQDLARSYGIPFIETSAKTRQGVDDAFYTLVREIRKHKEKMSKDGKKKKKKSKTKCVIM
Sequence of KRAS G12C-BRAF complex (P62937 whole entry): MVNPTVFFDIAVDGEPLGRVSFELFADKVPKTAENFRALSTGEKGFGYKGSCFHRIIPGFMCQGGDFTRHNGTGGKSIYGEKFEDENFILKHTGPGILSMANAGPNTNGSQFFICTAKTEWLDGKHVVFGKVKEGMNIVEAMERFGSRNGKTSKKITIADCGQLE

## CO[C@@H](C)c1ncc(N2CCN(CC(F)(F)F)CC2)cc1-c1c2c3cc(cc4c3n1CCO4)-c1csc(n1)C[C@H](NC(=O)[C@H]1C[C@@H]1c1cccnc1)C(=O)N1CCC[C@H](N1)C(=O)OCC(C)(C)C2 (atropisomer, axis not shown; (M)) [Example 98, (1S,2S)-N-[(7S,13S)-(20M)-20-[2-[(1S)-1-methoxyethyl]-5-[4-(2,2,2-trifluoroethyl)piperazin-1-yl]-3-pyridyl]-17,17-dimethyl-8,14-dioxo-15,24-dioxa-4-thia-9,21,30,31-2,5 9,13 19,27 21,26]hentriaconta-1 (28),2,5 (31),19,25 (29),26-hexaen-tetrazahexacyclo[23.3.1.1″>0.1″>7-yl]-2-(3-pyridyl)cyclopropanecarboxamide]
KRAS G12C-BRAF complex
  pIC50: 7.95
[1]
  pIC50: 9.05
[2]
  pIC50: 9.30
[3]
  pIC50: 8.34
[4]
  pIC50: 8.40
SW620 cells (KRAS G12V)
  pIC50: 9.22
AGS cells (KRAS G12D)
  pIC50: 8.09

## CO[C@@H](C)c1ncc(N2CCN3CCOC[C@@H]3C2)cc1-c1c2c3cc(cc4c3n1CCC4)-c1csc(n1)C[C@H](NC(=O)[C@H]1C[C@@H]1c1cccnc1)C(=O)N1CCC[C@H](N1)C(=O)OCC(C)(C)C2 (atropisomer, axis not shown; (M)) [Example 104, (1S,2S)-N-[(7S,13S)-(20M)-20-[5-[(9αS)-3,4,6,7,9,9a-hexahydro-1H-pyrazino[2,1-c][1,4]oxazin-8-yl]-2-[(1S)-1-methoxyethyl]-3-pyridyl]-17,17-dimethyl-8,14-dioxo-15-oxa-4-thia-9,21,30,31-tetrazahexacyclo[23.3.1.1^2,5.1^9,13.0^19,27.0^21,26]hentriaconta-1 (28),2,5 (31),19,25 (29),26-hexaen-7-yl]-2-(3-pyridyl)cyclopropanecarboxamide]
KRAS G12C-BRAF complex
  pIC50: 8.01
[1]
  pIC50: 9.00
[2]
  pIC50: 9.40
[3]
  pIC50: 8.80
[4]
  pIC50: 9.10
SW620 cells (KRAS G12V)
  pIC50: 9.70
AGS cells (KRAS G12D)
  pIC50: 8.42

## CO[C@@H](C)c1ncc(N2CCN(C)CC2)cc1-c1c2c3cc(cc4c3n1CCO4)-c1csc(n1)C[C@H](NC(=O)[C@H]1C[C@@H]1c1cncnc1)C(=O)N1CCC[C@H](N1)C(=O)OCC(C)(C)C2 (atropisomer, axis not shown; (M)) [Example 93, (1S,2S)-N-[(7S,13S)-(20M)-20-[2-[(1S)-1-methoxyethyl]-5-(4-methylpiperazin-1-yl)-3-pyridyl]-17,17-dimethyl-8,14-dioxo-15,24-dioxa-4-thia-9,21,30,31-tetrazahexacyclo[23.3.1.1^2,5.1^9,13.0^19,27.0^21,26]hentriaconta-1 (28),2,5 (31), 19,25 (29),26-hexaen-7-yl]-2-pyrimidin-5-yl-cyclopropanecarboxamide]
KRAS G12C-BRAF complex
  pIC50: 7.83
[1]
  pIC50: 8.92
[2]
  pIC50: 8.92
[3]
  pIC50: 8.46
[4]
  pIC50: 8.52
SW620 cells (KRAS G12V)
  pIC50: 9.00
AGS cells (KRAS G12D)
  pIC50: 8.30

## CO[C@@H](C)c1ncc(N2CCN(C)CC2)cc1-c1c2c3cc(cc4c3n1CCC4)-c1csc(n1)C[C@H](NC(=O)[C@H]1C[C@@H]1c1cnccn1)C(=O)N1CCC[C@H](N1)C(=O)OCC(C)(C)C2 (atropisomer, axis not shown; (M)) [Example 99, (1S,2S)-N-[(7S,13S)-(20M)-20-[2-[(1S)-1-methoxyethyl]-5-(4-methylpiperazin-1-yl)-3-pyridyl]-17,17-dimethyl-8,14-dioxo-15-oxa-4-thia-9,21,30,31-tetrazahexacyclo[23.3.1.1^2,5.1^9,13.0^19,27.0^21,26]hentriaconta-1 (28),2,5 (31), 19,25 (29),26-hexaen-7-yl]-2-pyrazin-2-yl-cyclopropanecarboxamide]
KRAS G12C-BRAF complex
  pIC50: 7.90
[1]
  pIC50: 9.30
[2]
  pIC50: 9.40
[3]
  pIC50: 8.72
[4]
  pIC50: 8.68
SW620 cells (KRAS G12V)
  pIC50: 9.40
AGS cells (KRAS G12D)
  pIC50: 8.11

## CO[C@@H](C)c1ncc(N2CCN(C)CC2)cc1-c1c2c3cc(cc4c3n1CCO4)-c1csc(n1)C[C@H](NC(=O)[C@@H]1[C@@H]3COC[C@@H]31)C(=O)N1CCC[C@H](N1)C(=O)OCC(C)(C)C2 (atropisomer, axis not shown; (M)) [Example 52, (1R,5S,6s)-N-[(7S,13S)-(20M)-20-[2-[(1S)-1-methoxyethyl]-5-(4-methylpiperazin-1-yl)-3-pyridyl]-17,17-dimethyl-8,14-dioxo-15,24-dioxa-4-thia-9,21,30,31-tetrazahexacyclo[23.3.1.1^2,5.1^9,13.0^19,27.0^21,26]hentriaconta-1 (28),2,5 (31), 19,25 (29),26-hexaen-7-yl]-3-oxabicyclo[3.1.0]hexane-6-carboxamide]
KRAS G12C-BRAF complex
  pIC50: 7.79
[1]
  pIC50: 8.85
[2]
  pIC50: 9.15
[3]
  pIC50: 8.29
[4]
  pIC50: 8.15
SW620 cells (KRAS G12V)
  pIC50: 8.96
AGS cells (KRAS G12D)
  pIC50: 7.92

## CO[C@@H](C)c1ncc(N2CCN(CC(F)(F)F)CC2)cc1-c1c2c3cc(cc4c3n1CC(F)(F)C4)-c1csc(n1)C[C@H](NC(=O)[C@H]1[C@H](C)[C@@H]1C)C(=O)N1CCC[C@H](N1)C(=O)OCC(C)(C)C2 (atropisomer, axis not shown; (M)) [Example 87, (1r,2S,3R)-N-[(7S,13S)-23,23-difluoro-(20M)-20-[2-[(1S)-1-methoxyethyl]-5-[4-(2,2,2-trifluoroethyl)piperazin-1-yl]-3-pyridyl]-17,17-dimethyl-8,14-dioxo-15-oxa-4-thia-9,21,30,31-tetrazahexacyclo[23.3.1.1^2,5.1^9,13.0^19,27.0^21,26]hentriaconta-1 (28),2,5 (31),19,25 (29),26-hexaen-7-yl]-2,3-dimethyl-cyclopropanecarboxamide]
KRAS G12C-BRAF complex
  pIC50: 7.49
[1]
  pIC50: 8.32
[2]
  pIC50: 8.82
[3]
  pIC50: 7.39
[4]
  pIC50: 7.52
SW620 cells (KRAS G12V)
  pIC50: 8.40
AGS cells (KRAS G12D)
  pIC50: 7.24

## CO[C@@H](C)c1ncc(N2CCOCC2)cc1-c1c2c3cc(cc4c3n1CCO4)-c1csc(n1)C[C@H](NC(=O)[C@H]1[C@H](C)[C@@H]1C)C(=O)N1CCC[C@H](N1)C(=O)OCC(C)(C)C2 (atropisomer, axis not shown; (M)) [Example 68, (1r,2R,3S)-N-[(7S,13S)-(20M)-20-[2-[(1S)-1-methoxyethyl]-5-morpholino-3-pyridyl]-17,17-dimethyl-8,14-dioxo-15,24-dioxa-4-thia-9,21,30,31-tetrazahexacyclo[23.3.1.1^2,5.1^9,13.0^19,27.0^21,26]hentriaconta-1 (29),2,5 (31),19,25,27-hexaen-7-yl]-2,3-dimethyl-cyclopropanecarboxamide]
KRAS G12C-BRAF complex
  pIC50: 7.77
[1]
  pIC50: 9.70
[2]
  pIC50: 9.52
[3]
  pIC50: 8.41
[4]
  pIC50: 8.49
SW620 cells (KRAS G12V)
  pIC50: 9.30
AGS cells (KRAS G12D)
  pIC50: 8.11

## CO[C@@H](C)c1ncc(N2CCN(C)CC2)cc1-c1c2c3cc(cc4c3n1CCO4)-c1csc(n1)C[C@H](NC(=O)[C@H]1[C@H](C)[C@@H]1C)C(=O)N1CCC[C@H](N1)C(=O)OCC(C)(C)C2 (atropisomer, axis not shown; (M)) [Example 45, (1r,2S,3R)-N-[(7S,13S)-(20M)-20-[2-[(1S)-1-methoxyethyl]-5-(4-methylpiperazin-1-yl)-3-pyridyl]-17,17-dimethyl-8,14-dioxo-15,24-dioxa-4-thia-9,21,30,31-tetrazahexacyclo[23.3.1.1^2,5.1^9,13.0^19,27.0^21,26]hentriaconta-1 (28),2,5 (31),19,25 (29),26-hexaen-7-yl]-2,3-dimethyl-cyclopropanecarboxamide]
KRAS G12C-BRAF complex
  pIC50: 7.85
[1]
  pIC50: 9.22
[2]
  pIC50: 9.70
[3]
  pIC50: 8.68
[4]
  pIC50: 8.74
SW620 cells (KRAS G12V)
  pIC50: 9.70
AGS cells (KRAS G12D)
  pIC50: 8.44
